In patent US20260256712A1, “COMPOUNDS FOR INHIBITING GRAM-POSITIVE BACTERIA” (priority 2022, published 2026):
“Also recorded” adds a separate entry of the source.

What was measured:
Pseudomonas aeruginosa = assay: Bacterial growth assay, Pseudomonas aeruginosa; type: cell-based
Method: (§1) The culture was diluted again 1/500 in 1 ml of fresh media with presence of increasing concentrations of tested compound or 1% DMSO as a control.

[1] = test system: Staphylococcus aureus strains including MRSA; assay: Drug susceptibility assay (MIC), Staphylococcus aureus; type: cell-based; settings: including the MRSA strain
Method: Drug susceptibility assays. Experiments to determine the minimum inhibitory concentration (MIC) of RR-THC for bacterial growth were performed in 96-well microtiter plates. A DMSO stock solution of each compound was added to the first column and serially diluted across the columns of the plate. The last column of the plate contained no drug and served as a no-drug control. Overnight cultures of the bacterium being tested (MRSA ATCC 43300, […], or the aforementioned VRSA/VISA strains) were diluted 1000-fold, and 100 μL of the diluted culture (appr. 2×10^3 cells) was used as an inoculum in each well. MICs were determined by visual inspection looking for a pellet after 18 h incubation at 37° C. and centrifugation.

E. coli DH5α = assay: Zone inhibition assay (ZIA), E. coli
[2] = test system: USA300 methicillin-resistant Staphylococcus aureus (MRSA); type: in vivo, C57Bl/6J mice; settings: for bacterial counts (punch biopsies) / dermonecrosis: topical ointment daily, 0.2 mg drug; for dermonecrosis: first experiment
[3] = Cytotoxicity assay (CellTiter 96 AQueous One Solution); type: cell-based; settings: African green monkey, Vero cells, read-out: Cytotoxicity CC 50
Method: Cytotoxicity assay. Compounds were tested for cytotoxicity against mammalian Vero cells using the CellTiter 96 AQueous One Solution Assay kit (Promega). Vero cells were seeded in 96-well plates at a density of 2×10^4 cells per well, and the plates were incubated for 4 h at 37° C. to allow attachments of the Vero cells. Chemical compounds being tested were then added to the wells starting from a final concentration of 50 μg/mL and making 12 1:2 dilutions. Cells were incubated for 72 h at 37° C., after which 20 μL of freshly prepared MTS:PMS reagents was added to each well. The plates were incubated for 2 h and then read at an absorbance of 490 nm.

B. subtilis 1S-75 = assay: Zone inhibition assay (ZIA), B. subtilis; type: cell-based, Bacillus subtilis
Gram-negative bacteria = assay: Drug susceptibility assay (MIC), Gram-negative bacteria; type: cell-based
[4] = test system: ternary complex between Cy5-EF-Tu:GTP and Cy3-Phe-tRNAPhe; assay: EF-Tu:tRNA FRET assay (qHTS and secondary FRET assay); type: biochemical, E. coli; settings: online and offline LOPAC testing
Source text: Upon formation of functional ternary complex between Cy5-EF-Tu:GTP and Cy3-Phe-tRNAPhe, fluorescence energy transfer (FRET) occurs between Cy3 and Cy5 fluorophores located within Förster radius (~17 Å) when Cy3 is excited at 532 nm, and as a result the complex emits light at 665 nm. Presence of inhibitors of the ternary complex prevents complex from forming, thereby reducing fluorescence intensity at 665 nm.
Inhibitors of EF-Tu:tRNA translation were identified using this in vitro FRET system. Quantitative high throughput screening (qHTS) was performed on the LOPAC library containing 1,280 chemicals to identify potential leads for antibiotic development. […]
Equipment: EnVision 2104 Multilabel Plate Reader (PerkinElmer) with excitation optical filter 2100-5050 Bodipy TMR FR 531 nm and emission optical filter 2100-5770 Cy5 685 nm. […]
All solutions were prepared fresh in assay buffer consisting of 70 mM HEPES-KOH (pH7.6), 52 mM ammonium acetate, 8 mM magnesium chloride, 30 mM potassium chloride, and 2.6% glycerol. […] FRET was then detected using 1) a ViewLux high-throughput microplate imager (PerkinElmer) equipped with Ex: 525/20 and Em: 671/8 filters; or 2) an Envision Multimode plate reader (PerkinElmer) equipped with Ex: 530/25 and Em: 665 filters. Assay performance, as calculated by Z′ factor as described by Zhang et al (J Biomol Screen, 1999), was favorable for the Envision plate reader. […]

[5] = Intraperitoneal administration in mice; type: in vivo; settings: 10 mg/ml
mycobacteria = assay: Drug susceptibility assay (MIC), mycobacteria; type: cell-based
B. subtilis IS-75 = assay: Bacterial growth / viable count assay, B. subtilis; type: cell-based, Bacillus subtilis
Method: as §1

E. coli strains = assay: Bacterial growth assay, E. coli; type: cell-based, Escherichia coli
Method: as §1

[6] = test system: Cy3/Cy5-labelled oligonucleotides; assay: Counterscreen assay excluding quenching (Cy3/Cy5 oligonucleotide FRET); settings: 50 nM of each oligonucleotide
Method: Oligonucleotides were purchased from Integrated DNA Technologies:
In the assay, a 50 nM final concentration of each oligonucleotide was used.
Incubation buffer: 70 mM HEPES-KOH (pH 7.6), 52 mM ammonium acetate, 8 mM magnesium chloride, 30 mM potassium chloride and 2.6% glycerol. A 96-well black, clear bottom microplate was used and read the plate was read using EnVision multilabel plate reader (PerkinElmer) having the same optical filters and parameters as described in Example 2.

| Structure (SMILES) | inhibition of bacterial growth, Pseudomonas aeruginosa (Pseudomonas aeruginosa) | sensitivity in MIC assay, three Staphylococcus aureus strains [1] | zone inhibition result in words, E. coli (E. coli DH5α) | dermonecrosis, repetition of the experiment ([2]; compared to controls but not compared to the mupirocin treated group) | bacterial counts (punch biopsies) [2] | dermonecrosis [2] | CC50 at 72 h [3] [µM] | zone inhibition result in words, gram-positive bacteria (B. subtilis) (B. subtilis 1S-75) | sensitivity in MIC assay, Gram-negative bacteria (Gram-negative bacteria) | effect on Cy5-EF-Tu acceptor fluorescence emission in the FRET assay [4] | toxicity upon intraperitoneal administration [5] | sensitivity in MIC assay, mycobacteria (mycobacteria) | colony formation of B. subtilis on agar plate (B. subtilis IS-75; 10 μM added to the medium in an agar plate) | inhibition at 5 µM (B. subtilis IS-75; Bacillus subtilis, IS75, 5 μM, cells grown in test tubes) [%] | inhibition of bacterial growth, E. coli strains (E. coli strains) | change of FRET in quenching counterscreen [6] |
| --- | --- | --- | --- | --- | --- | --- | --- | --- | --- | --- | --- | --- | --- | --- | --- | --- |
| CC[C@@H]1Cc2cc(O)ccc2C2=C1c1ccc(O)cc1C[C@H]2CC [RR-THC, (R,R)-tetrahydrochrysene] | No inhibition | highly sensitive | did not inhibit | statistically significant decrease in dermonecrosis | no difference apparent | inhibiting dermonecrosis; also recorded: trend to reduced dermonecrosis | > 50 | clear zone indicative of inhibition of cell growth | not sensitive | significantly diminished; also recorded: effectively decreased Cy5-EF-Tu acceptor fluorescence emission; also recorded: highly active in both methods | a level of toxicity observed | not sensitive | colonies did not form | ~97 | No inhibition | did not significantly change FRET |
| C/C(=C\C(=O)OCCCCCCCCC(=O)O)C[C@@H]1OC[C@H](C[C@@H]2O[C@H]2[C@@H](C)[C@H](C)O)[C@@H](O)[C@H]1O [mupirocin, reference compound] | – | – | – | – | trend to reduction | no decrease | – | – | – | – | – | – | – | – | – | – |
